Results on 1 molecule are retold here after patent US20040152659A1, “Method for the treatment of parkinson's disease comprising administering an A1A2a receptor dual antagonist” (Fujisawa Pharmaceutical Co. Ltd., priority 1999, published 2004).

In experiment [1] the target is T1, human recombinant A1 receptors (Homo sapiens, UniProt P30542).
T1 construct: expressed in transfected cells; host or cells: CHO cells
T1 sequence (P30542 1-326): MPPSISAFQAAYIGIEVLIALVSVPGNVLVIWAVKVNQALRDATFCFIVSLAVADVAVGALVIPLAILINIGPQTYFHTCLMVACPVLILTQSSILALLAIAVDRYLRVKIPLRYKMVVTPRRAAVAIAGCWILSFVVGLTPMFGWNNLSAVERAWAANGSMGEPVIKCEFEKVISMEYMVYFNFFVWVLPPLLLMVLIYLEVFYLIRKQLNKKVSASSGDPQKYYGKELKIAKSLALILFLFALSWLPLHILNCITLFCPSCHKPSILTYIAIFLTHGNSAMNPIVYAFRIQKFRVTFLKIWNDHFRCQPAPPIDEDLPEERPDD
Kind of experiment: Estimation of Adenosine A1-receptor antagonizing activity ([3H]-DPCPX binding, CHO cell membrane fractions). From the text: (§1) The existence and intensity of “adenosine A1-receptor antagonizing activity” and/or “adenosine A2a-receptor antagonizing activity” can be ascertained and assessed typically by the following test method. The intensity of adenosine A1-receptor antagonizing action and of adenosine A2a-receptor antagonizing action as referred to in the appended claims also means the value found by the method described below.
(§2) “Estimation of Adenosine A1 and A2a-receptor antagonizing activity”
(§3) Membrane fractions prepared from the CHO cells which transfected stably with human recombinant A1 or A2a receptors were incubated for 1 hr at 25° C. with test compounds, ADA, 50 mM Tris buffer and [3H]-DPCPX (final 4 nM) or [3H]-CGS21680 (final 15 nM), respectively. Reaction mixtures were filtrated with 96-well harvestor to separate free ligands from bound fraction using GF/C filter. Radioactivity of the dried filter was counted, and specific binding of each labelled rigands was calculated.

The target in experiment [2] is T2, human recombinant A2a receptors (Homo sapiens, UniProt P29274).
T2 construct: expressed in transfected cells; host or cells: CHO cells
T2 sequence (P29274 whole entry): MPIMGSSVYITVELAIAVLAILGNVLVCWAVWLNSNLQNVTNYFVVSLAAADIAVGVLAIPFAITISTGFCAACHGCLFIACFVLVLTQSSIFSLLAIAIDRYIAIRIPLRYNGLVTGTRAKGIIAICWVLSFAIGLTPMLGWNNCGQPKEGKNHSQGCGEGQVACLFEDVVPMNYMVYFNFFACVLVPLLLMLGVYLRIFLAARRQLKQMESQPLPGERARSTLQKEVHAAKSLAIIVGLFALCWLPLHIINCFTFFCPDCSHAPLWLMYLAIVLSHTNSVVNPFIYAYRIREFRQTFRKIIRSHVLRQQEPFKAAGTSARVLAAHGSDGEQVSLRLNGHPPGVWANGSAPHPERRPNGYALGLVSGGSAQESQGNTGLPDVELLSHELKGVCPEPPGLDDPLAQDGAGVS
Nature of the experiment: Estimation of Adenosine A2a-receptor antagonizing activity ([3H]-CGS21680 binding, CHO cell membrane fractions). The note with it: at a concentration of 1.0×10^−6 M; [3H]-CGS21680 15 nM; read-out: inhibition rate for Adenosine A2a-receptor.
Text: as §1, §2, §3

The test system of experiment [3] is Mice. Kind of experiment: Test 1 Anticataleptic action (haloperidol-induced catalepsy). In kind it is in vivo. The note with it: 1 mg/kg oral, 30 min before haloperidol 0.32 mg/kg i.p., observed 30 min later, control 100. The protocol:
Test 1 Anticataleptic Action
Mice were orally dosed with the test compound as a suspention in 0.5% of methyl cellulose and, 30 minutes later, intraperitoneally dosed with 0.32 mg/kg of haloperidol.

Experiment [4] has as its system male SD rats. Kind of experiment: Test 2 Anxiolytic action (social interaction test). To be noted: 0.32 mg/kg oral 1 h before test, 15 min observation, control 51.3 ± 6.0. It is filed as in vivo. The protocol: Two male SD rats acclimated for 1 week and handled once were used in sets. One hour before beginning of the test, both rats in each set were orally dosed with the same amount of the test compound or the vehicle. Immediately thereafter, both rats were placed in a new environment where territories were to be established as yet and their behaviors were monitored and recorded over 15 minutes. After the test, the records were analyzed and evaluated in terms of the total duration of social interaction (social interaction time) (observation items: sniffing, following, grooming, kicking, boxing, biting, wrestling, crawling under or over the partner).

Experiment [5] concerns Male Wistar rats. Kind of experiment: Test 3 Impaired-memory ameliorating action (scopolamine-impaired retention trial). In kind it is in vivo. To be noted: scopolamine 1 mg/kg i.p. + test compound 1 mg/kg i.p. immediately after acquisition trial, scopolamine + control 80.2 ± 34.9, intact 300 ± 0. As to the method:
Test 3 Impaired-Memory Ameliorating Action
Male Wistar rats were serially subjected to an acclimation trial, an acquisition trial 1 hour after the acclimation trial, and a retention trial 24 hours after the acquisition trial. Scopolamine 1 mg/kg was intraperitoneally administered 30 minutes before the acquisition trial. The test compound was intraperitoneally administered immediately after the acquisition trial.

Turning to `O=c1ccc(-c2c(-c3ccccc3)nn3ccccc23)nn1Cc1nccs1` [(A), 3-[2-(Thiazol-2-ylmethyl)-3-oxo-2,3-dihydropyridazin-6-yl]-2-phenylpyrazolo[1,5-a]pyridine], the “affinity for the adenosine A1-receptor relative to affinity for the adenosine A2a receptor” value in experiment [1] (A1 affinity as a multiple of A2a affinity) is on record as 36 times. Further, the inhibition at 1 µM is at least 80% in experiment [1] (at a concentration of 1.0×10^−6 M, [3H]-DPCPX 4 nM, read-out: inhibition rate for Adenosine A1-receptor) and at least 80% in experiment [2]. In experiment [3], this molecule registered an Incidence of catalepsy of 20%. Further, the Social interaction time in experiment [4] turned out to be 90.5 ± 12.5 s. Moreover, the “Reaction latency in retention trial” value in experiment [5] was determined as 215.6 ± 35.0 s.

A word on the inhibition: it is the share of the control response that was lost under treatment.
